# Experimental data taken from the NIST ThermoML archive (doi:10.1021/je0498661).
# ± gives the expanded uncertainty stated by the source.
# Settings: 101.33 kPa, Liquid, Hot wire method
Structure (SMILES),thermal conductivity (273.15 K) [W/m/K],thermal conductivity (293.15 K) [W/m/K],thermal conductivity (313.15 K) [W/m/K],thermal conductivity (333.15 K) [W/m/K],thermal conductivity (288.15 K) [W/m/K],thermal conductivity (303.15 K) [W/m/K],thermal conductivity (318.15 K) [W/m/K]
"CN(C)CCN(C)C [N,N,N',N'-tetramethyl-1,2-diaminoethane]",0.154 ± 0.003,0.15 ± 0.003,0.144 ± 0.003,0.135 ± 0.003,,,
CC#N [acetonitrile],0.207 ± 0.004,0.195 ± 0.004,0.183 ± 0.004,,,,
C1CCSC1 [tetrahydrothiophene],0.12 ± 0.003,,,0.11 ± 0.002,0.117 ± 0.002,0.115 ± 0.002,0.112 ± 0.002
CCSCC [3-thiapentane],0.145 ± 0.003,0.14 ± 0.003,0.137 ± 0.003,0.13 ± 0.003,,,
C1CCCNCC1 [azacycloheptane],0.141 ± 0.003,0.137 ± 0.003,0.131 ± 0.003,0.126 ± 0.003,,,
